biological target: JAK2 (Homo sapiens (Human), UniProt O60674); assay: Biochemical JAK2 kinase assay (LanthaScreen); details: not given
Description: (§1) Assay 1: Biochemical JAK and Tyk2 Kinase Assays
(§2) A panel of four LanthaScreen JAK biochemical assays (JAK1, 2, 3 and Tyk2) were carried in a common kinase reaction buffer (50 mM HEPES, pH 7.5, 0.01% Brij-35, 10 mM MgCl2, and 1 mM EGTA). Recombinant GST-tagged JAK enzymes and a GFP-tagged STAT1 peptide substrate were obtained from Life Technologies.
(§3) Serially or discretely diluted compounds were pre-incubated with each of the four JAK enzymes and the substrate in white 384-well microplates (Corning) at ambient temperature for 1 h. ATP was subsequently added to initiate the kinase reactions in 10 μL total volume, with 1% DMSO. […] Kinase reactions were allowed to proceed for 1 hour at ambient temperature before a 10 μL preparation of EDTA (10 mM final concentration) and Tb-anti-pSTAT1 (pTyr701) antibody (Life Technologies, 2 nM final concentration) in TR-FRET dilution buffer (Life Technologies) was added. The plates were allowed to incubate at ambient temperature for 1 h before being read on the EnVision reader (Perkin Elmer). Emission ratio signals (520 nm/495 nm) were recorded and utilized to calculate the percent inhibition values based on DMSO and background controls.
(§4) For dose-response analysis, percent inhibition data were plotted vs. compound concentrations, and IC50 values were determined from a 4-parameter robust fit model with the Prism software (GraphPad Software). Results were expressed as pIC50 (negative logarithm of IC50) and subsequently converted to pKi (negative logarithm of dissociation constant, Ki) using the Cheng-Prusoff equation.

Chain of JAK2 (O60674 whole entry): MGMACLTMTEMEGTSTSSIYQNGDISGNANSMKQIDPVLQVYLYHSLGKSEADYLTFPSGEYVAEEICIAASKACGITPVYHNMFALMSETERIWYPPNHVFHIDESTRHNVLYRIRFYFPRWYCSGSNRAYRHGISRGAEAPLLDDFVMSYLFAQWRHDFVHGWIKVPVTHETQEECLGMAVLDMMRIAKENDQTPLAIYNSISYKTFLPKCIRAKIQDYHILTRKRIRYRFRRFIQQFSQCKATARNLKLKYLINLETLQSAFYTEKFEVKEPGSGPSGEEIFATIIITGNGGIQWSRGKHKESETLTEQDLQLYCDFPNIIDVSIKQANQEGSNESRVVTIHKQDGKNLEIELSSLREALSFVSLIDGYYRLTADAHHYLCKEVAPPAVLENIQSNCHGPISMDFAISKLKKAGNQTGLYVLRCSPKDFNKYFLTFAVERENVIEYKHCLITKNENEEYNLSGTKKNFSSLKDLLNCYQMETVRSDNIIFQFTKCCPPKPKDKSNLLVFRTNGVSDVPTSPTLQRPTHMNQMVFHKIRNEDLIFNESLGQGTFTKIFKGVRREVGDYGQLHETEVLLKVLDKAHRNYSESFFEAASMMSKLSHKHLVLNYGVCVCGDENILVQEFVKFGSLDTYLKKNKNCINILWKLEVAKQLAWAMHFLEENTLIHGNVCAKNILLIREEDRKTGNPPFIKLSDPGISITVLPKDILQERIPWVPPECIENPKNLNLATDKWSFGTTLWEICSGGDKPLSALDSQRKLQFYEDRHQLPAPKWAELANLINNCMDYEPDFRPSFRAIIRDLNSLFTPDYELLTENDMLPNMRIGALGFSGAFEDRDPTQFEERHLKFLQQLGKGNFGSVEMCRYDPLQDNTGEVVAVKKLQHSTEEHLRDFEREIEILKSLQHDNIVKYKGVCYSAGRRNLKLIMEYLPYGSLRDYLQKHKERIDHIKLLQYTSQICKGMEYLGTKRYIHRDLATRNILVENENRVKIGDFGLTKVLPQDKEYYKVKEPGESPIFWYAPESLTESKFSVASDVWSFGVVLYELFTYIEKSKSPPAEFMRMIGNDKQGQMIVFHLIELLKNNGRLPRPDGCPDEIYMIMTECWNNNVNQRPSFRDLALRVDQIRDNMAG

SMILES | JAK 2 (pKi)
C=CC(=O)N1CC(CCn2c(=O)ccc3cnc(Nc4ccc5[nH]c(=O)oc5c4)nc32)C1 [Example 59] | E (E represents a pKi value of 7 or below (Ki of 100 nM or above))
C=CC(=O)N1CC(CCn2c(=O)ccc3cnc(Nc4cccc(C(=O)N5CCCCC5)c4)nc32)C1 [Example 64] | E (E represents a pKi value of 7 or below (Ki of 100 nM or above))
C=CC(=O)N1CC(CCn2c(=O)ccc3cnc(Nc4cccc(C(=O)N5CCOCC5)c4)nc32)C1 [Example 65] | E (E represents a pKi value of 7 or below (Ki of 100 nM or above))
C=CC(=O)N1CC(CCn2c(=O)ccc3cnc(Nc4cccc(N5CCCCC5)c4)nc32)C1 [Example 68] | E (E represents a pKi value of 7 or below (Ki of 100 nM or above))
C=CC(=O)N1CC(CCn2c(=O)ccc3cnc(Nc4ccc(-n5ccnc5)cc4)nc32)C1 [Example 73] | E (E represents a pKi value of 7 or below (Ki of 100 nM or above))
C=CC(=O)N1CC(CCn2c(=O)ccc3cnc(Nc4ccc(N5CCN(C(=O)C(C)C)CC5)cc4)nc32)C1 [Example 75] | E (E represents a pKi value of 7 or below (Ki of 100 nM or above))
C=CC(=O)N1CC(CCn2c(=O)ccc3cnc(Nc4ccc5[nH]cnc5c4)nc32)C1 [Example 84] | E (E represents a pKi value of 7 or below (Ki of 100 nM or above))

biological target: Tyk2 (Homo sapiens (Human), UniProt P29597); assay: Biochemical Tyk2 kinase assay (LanthaScreen); details: not given
Sequence (P29597 whole entry): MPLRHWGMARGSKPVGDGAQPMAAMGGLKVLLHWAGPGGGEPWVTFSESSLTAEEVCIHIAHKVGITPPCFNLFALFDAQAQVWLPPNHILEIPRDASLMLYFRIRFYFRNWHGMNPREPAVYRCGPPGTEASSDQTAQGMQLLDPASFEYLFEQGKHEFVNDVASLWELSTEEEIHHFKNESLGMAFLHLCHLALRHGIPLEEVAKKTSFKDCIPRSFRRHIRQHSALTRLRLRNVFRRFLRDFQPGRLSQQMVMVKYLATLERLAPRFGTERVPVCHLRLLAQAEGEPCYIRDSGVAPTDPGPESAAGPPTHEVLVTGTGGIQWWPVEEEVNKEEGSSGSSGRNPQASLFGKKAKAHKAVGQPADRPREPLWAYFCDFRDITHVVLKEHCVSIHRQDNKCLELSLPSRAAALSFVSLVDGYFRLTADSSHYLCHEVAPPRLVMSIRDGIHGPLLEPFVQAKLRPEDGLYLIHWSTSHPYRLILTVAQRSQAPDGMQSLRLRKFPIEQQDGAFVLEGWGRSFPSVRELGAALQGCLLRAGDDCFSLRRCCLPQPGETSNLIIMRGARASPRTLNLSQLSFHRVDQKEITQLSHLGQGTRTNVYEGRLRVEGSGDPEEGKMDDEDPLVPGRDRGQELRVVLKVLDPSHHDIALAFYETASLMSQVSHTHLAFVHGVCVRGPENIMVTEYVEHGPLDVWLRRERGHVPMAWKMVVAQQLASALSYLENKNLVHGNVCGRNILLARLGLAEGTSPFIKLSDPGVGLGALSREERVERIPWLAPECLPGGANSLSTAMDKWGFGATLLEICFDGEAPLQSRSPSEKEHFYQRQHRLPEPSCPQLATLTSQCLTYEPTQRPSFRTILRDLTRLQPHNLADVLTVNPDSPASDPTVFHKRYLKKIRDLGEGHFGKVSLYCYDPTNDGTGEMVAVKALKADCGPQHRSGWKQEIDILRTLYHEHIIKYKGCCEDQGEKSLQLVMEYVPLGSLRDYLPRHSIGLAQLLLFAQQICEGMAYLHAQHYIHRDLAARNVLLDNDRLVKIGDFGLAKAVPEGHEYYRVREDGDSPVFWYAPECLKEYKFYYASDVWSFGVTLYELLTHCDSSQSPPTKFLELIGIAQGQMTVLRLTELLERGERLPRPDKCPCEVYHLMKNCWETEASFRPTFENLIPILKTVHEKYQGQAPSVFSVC
Description: as §1, §2, §3, §4

SMILES | Tyk 2 (pKi)
C=CC(=O)N1CC(CCn2c(=O)ccc3cnc(Nc4ccc5[nH]c(=O)oc5c4)nc32)C1 [Example 59] | E (E represents a pKi value of 7 or below (Ki of 100 nM or above))
C=CC(=O)N1CC(CCn2c(=O)ccc3cnc(Nc4cccc(C(=O)N5CCCCC5)c4)nc32)C1 [Example 64] | E (E represents a pKi value of 7 or below (Ki of 100 nM or above))
C=CC(=O)N1CC(CCn2c(=O)ccc3cnc(Nc4cccc(C(=O)N5CCOCC5)c4)nc32)C1 [Example 65] | E (E represents a pKi value of 7 or below (Ki of 100 nM or above))
C=CC(=O)N1CC(CCn2c(=O)ccc3cnc(Nc4cccc(N5CCCCC5)c4)nc32)C1 [Example 68] | E (E represents a pKi value of 7 or below (Ki of 100 nM or above))
C=CC(=O)N1CC(CCn2c(=O)ccc3cnc(Nc4ccc(-n5ccnc5)cc4)nc32)C1 [Example 73] | E (E represents a pKi value of 7 or below (Ki of 100 nM or above))
C=CC(=O)N1CC(CCn2c(=O)ccc3cnc(Nc4ccc(N5CCN(C(=O)C(C)C)CC5)cc4)nc32)C1 [Example 75] | E (E represents a pKi value of 7 or below (Ki of 100 nM or above))
C=CC(=O)N1CC(CCn2c(=O)ccc3cnc(Nc4ccc5[nH]cnc5c4)nc32)C1 [Example 84] | E (E represents a pKi value of 7 or below (Ki of 100 nM or above))

biological target: JAK3 (Homo sapiens (Human), UniProt P52333); assay: Biochemical JAK3 kinase assay (LanthaScreen); details: not given
Sequence (P52333 whole entry): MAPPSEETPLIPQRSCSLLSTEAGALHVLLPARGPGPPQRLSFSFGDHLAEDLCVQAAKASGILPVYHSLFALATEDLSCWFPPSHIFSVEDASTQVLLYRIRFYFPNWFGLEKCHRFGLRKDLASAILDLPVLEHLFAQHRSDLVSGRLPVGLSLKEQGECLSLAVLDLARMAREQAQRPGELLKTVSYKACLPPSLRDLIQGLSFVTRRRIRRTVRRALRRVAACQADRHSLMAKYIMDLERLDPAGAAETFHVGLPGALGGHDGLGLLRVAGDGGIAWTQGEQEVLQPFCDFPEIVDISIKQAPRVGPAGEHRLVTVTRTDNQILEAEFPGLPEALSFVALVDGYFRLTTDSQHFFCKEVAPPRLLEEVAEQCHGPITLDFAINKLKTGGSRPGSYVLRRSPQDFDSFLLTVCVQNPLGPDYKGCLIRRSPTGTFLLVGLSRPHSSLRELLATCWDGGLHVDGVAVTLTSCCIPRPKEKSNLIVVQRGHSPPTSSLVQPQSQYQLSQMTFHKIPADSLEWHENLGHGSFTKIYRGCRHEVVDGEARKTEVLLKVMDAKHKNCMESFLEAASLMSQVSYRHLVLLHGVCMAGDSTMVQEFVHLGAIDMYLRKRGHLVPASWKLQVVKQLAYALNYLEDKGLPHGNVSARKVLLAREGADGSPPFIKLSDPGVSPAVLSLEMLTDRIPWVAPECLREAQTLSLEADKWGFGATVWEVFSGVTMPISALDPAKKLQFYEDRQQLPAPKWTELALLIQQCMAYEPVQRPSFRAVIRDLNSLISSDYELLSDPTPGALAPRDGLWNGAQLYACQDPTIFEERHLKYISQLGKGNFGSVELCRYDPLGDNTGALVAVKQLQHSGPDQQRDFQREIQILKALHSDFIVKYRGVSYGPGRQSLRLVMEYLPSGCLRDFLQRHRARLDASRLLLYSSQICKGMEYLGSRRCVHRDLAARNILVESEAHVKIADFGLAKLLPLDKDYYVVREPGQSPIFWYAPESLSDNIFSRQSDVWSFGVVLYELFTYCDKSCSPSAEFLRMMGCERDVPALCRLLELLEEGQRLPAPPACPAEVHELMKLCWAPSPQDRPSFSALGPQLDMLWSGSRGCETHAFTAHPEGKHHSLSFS
Method in brief: (§5)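 GST-JAK + GFP-STAT1 peptide, HEPES pH 7.5/MgCl2/EGTA/Brij-35 buffer; cpd preincubation 1 h RT; ATP start, 1 h RT; stop with 10 mM EDTA + 2 nM Tb-anti-pSTAT1; TR-FRET 520/495. 4-parameter IC50 → pKi (Cheng-Prusoff).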

SMILES | JAK 3 (pKi)
C=CC(=O)N1CC(CCn2c(=O)ccc3cnc(Nc4ccc5[nH]c(=O)oc5c4)nc32)C1 [Example 59] | B (B represents pKi value between 9 and 10 (Ki between 1 nM and 0.1 nM))
C=CC(=O)N1CC(CCn2c(=O)ccc3cnc(Nc4cccc(C(=O)N5CCCCC5)c4)nc32)C1 [Example 64] | B (B represents pKi value between 9 and 10 (Ki between 1 nM and 0.1 nM))
C=CC(=O)N1CC(CCn2c(=O)ccc3cnc(Nc4cccc(C(=O)N5CCOCC5)c4)nc32)C1 [Example 65] | B (B represents pKi value between 9 and 10 (Ki between 1 nM and 0.1 nM))
C=CC(=O)N1CC(CCn2c(=O)ccc3cnc(Nc4cccc(N5CCCCC5)c4)nc32)C1 [Example 68] | B (B represents pKi value between 9 and 10 (Ki between 1 nM and 0.1 nM))
C=CC(=O)N1CC(CCn2c(=O)ccc3cnc(Nc4ccc(-n5ccnc5)cc4)nc32)C1 [Example 73] | C (C represents a pKi value between 8 and 9 (Ki between 10 nM and 1 nM))
C=CC(=O)N1CC(CCn2c(=O)ccc3cnc(Nc4ccc(N5CCN(C(=O)C(C)C)CC5)cc4)nc32)C1 [Example 75] | C (C represents a pKi value between 8 and 9 (Ki between 10 nM and 1 nM))
C=CC(=O)N1CC(CCn2c(=O)ccc3cnc(Nc4ccc5[nH]cnc5c4)nc32)C1 [Example 84] | B (B represents pKi value between 9 and 10 (Ki between 1 nM and 0.1 nM))

same assay, conditions: selectivity JAK3 over JAK1, difference of pKi

SMILES | JAK3 (pKi)-JAK1 (pKi)
C=CC(=O)N1CC(CCn2c(=O)ccc3cnc(Nc4ccc5[nH]c(=O)oc5c4)nc32)C1 [Example 59] | A (A represents a value of 3 or above)
C=CC(=O)N1CC(CCn2c(=O)ccc3cnc(Nc4cccc(C(=O)N5CCCCC5)c4)nc32)C1 [Example 64] | A (A represents a value of 3 or above)
C=CC(=O)N1CC(CCn2c(=O)ccc3cnc(Nc4cccc(C(=O)N5CCOCC5)c4)nc32)C1 [Example 65] | A (A represents a value of 3 or above)
C=CC(=O)N1CC(CCn2c(=O)ccc3cnc(Nc4cccc(N5CCCCC5)c4)nc32)C1 [Example 68] | A (A represents a value of 3 or above)
C=CC(=O)N1CC(CCn2c(=O)ccc3cnc(Nc4ccc(-n5ccnc5)cc4)nc32)C1 [Example 73] | B (B represents a value of 2.5 to 3)
C=CC(=O)N1CC(CCn2c(=O)ccc3cnc(Nc4ccc(N5CCN(C(=O)C(C)C)CC5)cc4)nc32)C1 [Example 75] | B (B represents a value of 2.5 to 3)
C=CC(=O)N1CC(CCn2c(=O)ccc3cnc(Nc4ccc5[nH]cnc5c4)nc32)C1 [Example 84] | A (A represents a value of 3 or above)

biological target: JAK1 (Homo sapiens (Human), UniProt P23458); assay: Biochemical JAK1 kinase assay (LanthaScreen); details: not given
Sequence (P23458 whole entry): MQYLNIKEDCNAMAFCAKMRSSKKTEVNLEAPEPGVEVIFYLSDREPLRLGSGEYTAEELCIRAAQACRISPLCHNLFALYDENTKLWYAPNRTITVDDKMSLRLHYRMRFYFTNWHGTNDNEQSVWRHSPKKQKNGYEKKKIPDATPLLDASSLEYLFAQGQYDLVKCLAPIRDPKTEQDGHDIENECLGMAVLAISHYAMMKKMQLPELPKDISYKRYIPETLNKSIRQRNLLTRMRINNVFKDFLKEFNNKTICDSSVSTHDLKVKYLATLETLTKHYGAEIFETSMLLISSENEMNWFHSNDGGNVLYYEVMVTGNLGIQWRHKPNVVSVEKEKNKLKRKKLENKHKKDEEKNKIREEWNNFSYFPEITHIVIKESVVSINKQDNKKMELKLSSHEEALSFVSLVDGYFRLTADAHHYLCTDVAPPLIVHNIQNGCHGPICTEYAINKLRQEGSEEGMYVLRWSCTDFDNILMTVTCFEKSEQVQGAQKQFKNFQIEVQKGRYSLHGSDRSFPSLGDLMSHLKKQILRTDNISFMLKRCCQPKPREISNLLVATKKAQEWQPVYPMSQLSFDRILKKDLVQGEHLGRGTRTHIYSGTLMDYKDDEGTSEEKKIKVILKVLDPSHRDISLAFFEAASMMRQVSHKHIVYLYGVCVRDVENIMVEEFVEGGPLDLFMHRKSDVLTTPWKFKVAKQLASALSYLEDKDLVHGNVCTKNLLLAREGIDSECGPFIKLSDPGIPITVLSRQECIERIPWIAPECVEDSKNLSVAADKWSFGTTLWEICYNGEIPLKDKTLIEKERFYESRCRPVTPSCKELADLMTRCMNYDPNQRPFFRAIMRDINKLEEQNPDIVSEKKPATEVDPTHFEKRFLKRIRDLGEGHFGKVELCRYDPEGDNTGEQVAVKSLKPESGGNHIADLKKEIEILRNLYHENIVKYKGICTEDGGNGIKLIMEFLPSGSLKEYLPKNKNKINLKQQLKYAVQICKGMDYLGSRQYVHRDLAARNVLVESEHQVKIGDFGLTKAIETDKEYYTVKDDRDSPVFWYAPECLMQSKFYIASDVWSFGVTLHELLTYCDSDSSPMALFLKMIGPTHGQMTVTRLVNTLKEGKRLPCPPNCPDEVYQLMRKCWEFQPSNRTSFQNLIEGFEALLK
Method in brief: as §5

SMILES | JAK 1 (pKi)
C=CC(=O)N1CC(CCn2c(=O)ccc3cnc(Nc4ccc5[nH]c(=O)oc5c4)nc32)C1 [Example 59] | E (E represents a pKi value of 7 or below (Ki of 100 nM or above))
C=CC(=O)N1CC(CCn2c(=O)ccc3cnc(Nc4cccc(C(=O)N5CCCCC5)c4)nc32)C1 [Example 64] | E (E represents a pKi value of 7 or below (Ki of 100 nM or above))
C=CC(=O)N1CC(CCn2c(=O)ccc3cnc(Nc4cccc(C(=O)N5CCOCC5)c4)nc32)C1 [Example 65] | E (E represents a pKi value of 7 or below (Ki of 100 nM or above))
C=CC(=O)N1CC(CCn2c(=O)ccc3cnc(Nc4cccc(N5CCCCC5)c4)nc32)C1 [Example 68] | E (E represents a pKi value of 7 or below (Ki of 100 nM or above))
C=CC(=O)N1CC(CCn2c(=O)ccc3cnc(Nc4ccc(-n5ccnc5)cc4)nc32)C1 [Example 73] | E (E represents a pKi value of 7 or below (Ki of 100 nM or above))
C=CC(=O)N1CC(CCn2c(=O)ccc3cnc(Nc4ccc(N5CCN(C(=O)C(C)C)CC5)cc4)nc32)C1 [Example 75] | E (E represents a pKi value of 7 or below (Ki of 100 nM or above))
C=CC(=O)N1CC(CCn2c(=O)ccc3cnc(Nc4ccc5[nH]cnc5c4)nc32)C1 [Example 84] | E (E represents a pKi value of 7 or below (Ki of 100 nM or above))

system: IL-2 stimulated STAT5 phosphorylation in Tall-1 human T cell line (JAK3); assay: Cellular JAK3 potency assay: inhibition of IL-2 stimulated pSTAT5 in Tall-1 T cells; assay type: cell-based; details: IL-2 stimulated pSTAT5, Tall-1 T cells
Method in brief: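 Tall-1 cells, 45,000 per well, preincubated 1 hour with compound at 37 °C, then stimulated 30 minutes with IL-2 at 300 ng/ml final. pSTAT5 (Tyr694/699) in lysates quantified by AlphaLISA SureFire Ultra. pIC50 derived from inhibition curves, given as mean with SD.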

SMILES | Tall-1 (pIC50)
C=CC(=O)N1CC(CCn2c(=O)ccc3cnc(Nc4ccc5[nH]c(=O)oc5c4)nc32)C1 [Example 59] | C (C represents a pIC50 value between 6 and 6.7 (IC50 between 1 μM and 200 nM))
C=CC(=O)N1CC(CCn2c(=O)ccc3cnc(Nc4cccc(C(=O)N5CCCCC5)c4)nc32)C1 [Example 64] | C (C represents a pIC50 value between 6 and 6.7 (IC50 between 1 μM and 200 nM))
C=CC(=O)N1CC(CCn2c(=O)ccc3cnc(Nc4cccc(C(=O)N5CCOCC5)c4)nc32)C1 [Example 65] | C (C represents a pIC50 value between 6 and 6.7 (IC50 between 1 μM and 200 nM))
C=CC(=O)N1CC(CCn2c(=O)ccc3cnc(Nc4cccc(N5CCCCC5)c4)nc32)C1 [Example 68] | C (C represents a pIC50 value between 6 and 6.7 (IC50 between 1 μM and 200 nM))
C=CC(=O)N1CC(CCn2c(=O)ccc3cnc(Nc4ccc(-n5ccnc5)cc4)nc32)C1 [Example 73] | C (C represents a pIC50 value between 6 and 6.7 (IC50 between 1 μM and 200 nM))
C=CC(=O)N1CC(CCn2c(=O)ccc3cnc(Nc4ccc(N5CCN(C(=O)C(C)C)CC5)cc4)nc32)C1 [Example 75] | C (C represents a pIC50 value between 6 and 6.7 (IC50 between 1 μM and 200 nM))
C=CC(=O)N1CC(CCn2c(=O)ccc3cnc(Nc4ccc5[nH]cnc5c4)nc32)C1 [Example 84] | C (C represents a pIC50 value between 6 and 6.7 (IC50 between 1 μM and 200 nM))

From US11697648B2, “Fused pyrimidine pyridinone compounds as JAK inhibitors” (THERAVANCE BIOPHARMA R&D IP, LLC, priority 2019, dated 2023)
